Data from PMC6044933 (ACS Omega, 2017).
Structures can show the parent of a compound that is named as a salt. Where two headings read alike, the source gives them in different places.

Columns and labels:
Assay in all cases: cells
A2780 = details: Homo sapiens, A2780, 72 h
A431 = details: Homo sapiens, A-431, 72 h
BE2-C = details: Homo sapiens, BE(2)-C, 72 h
Du145 = details: Homo sapiens, DU-145, 72 h
H460 = details: Homo sapiens, NCI-H460, 72 h
HT29 = details: Homo sapiens, HT-29, 72 h
MCF-7 = details: Homo sapiens, MCF7, 72 h
MCF10A = details: Homo sapiens, MCF-10A, 72 h
MIA = details: 72 h
SJ-G2 = details: SJ-G2, 72 h
SMA = details: SMA, 72 h
U87 = details: Homo sapiens, U-87 MG, 72 h

O=C(O)c1ccc(OC/C=C\COc2ccc(C(=O)O)cc2)cc1 [compound 18, (Z)-4,4′-(But-2-ene-1,4-diylbis(oxy))dibenzoic Acid]
GI50 (A2780; read-out: 18): > 50 µM
GI50 (A431; read-out: 18): > 50 µM
GI50 (BE2-C; read-out: 18): > 50 µM
GI50 (Du145; read-out: 18): > 50 µM
GI50 (H460; read-out: 18): > 50 µM
GI50 (HT29; read-out: 18): > 50 µM
GI50 (MCF-7; read-out: 18): > 50 µM
GI50 (MCF10A; read-out: 18): > 50 µM
GI50 (MIA; read-out: 18): > 50 µM
GI50 (SJ-G2; read-out: 18): > 50 µM
GI50 (SMA; read-out: 18): > 50 µM
GI50 (U87; read-out: 18): > 50 µM

CCNC(=O)Nc1ccc(OC/C=C\COc2ccc(CCN)cc2)cc1 [13i, (Z)-2-(4-((4-(4-(3-Ethylureido)phenoxy)but-2-en-1-yl)oxy)phenyl)ethan-1-aminium]
GI50 (A2780; read-out: 13i): 18 ± 0.91 µM
GI50 (A431; read-out: 13i): 17 ± 0.75 µM
GI50 (BE2-C; read-out: 13i): 18 ± 3.2 µM
GI50 (Du145; read-out: 13i): 13 ± 0.41 µM
GI50 (H460; read-out: 13i): 21 ± 2.1 µM
GI50 (HT29; read-out: 13i): 15 µM
GI50 (MCF-7; read-out: 13i): 17 ± 0.82 µM
GI50 (MCF10A; read-out: 13i): 19 ± 0.5 µM
GI50 (MIA; read-out: 13i): 28 ± 0.82 µM
GI50 (SJ-G2; read-out: 13i): 24 ± 2.6 µM
GI50 (SMA; read-out: 13i): 28 ± 4.4 µM
GI50 (U87; read-out: 13i): 29 ± 1.4 µM

N=C(N)NN=Cc1ccc(OC/C=C\COc2ccc(C=NNC(=N)N)cc2)cc1 [compound 22]
GI50 (A2780; read-out: 22): 2.4 ± 0.14 µM
GI50 (A431; read-out: 22): 2.2 ± 0.11 µM
GI50 (BE2-C; read-out: 22): 2.3 ± 0.13 µM
GI50 (Du145; read-out: 22): 1.7 ± 0.12 µM
GI50 (H460; read-out: 22): 2.2 ± 0.065 µM
GI50 (HT29; read-out: 22): 2.1 ± 0.05 µM
GI50 (MCF-7; read-out: 22): 2.3 ± 0.1 µM
GI50 (MCF10A; read-out: 22): 2.8 ± 0.15 µM
GI50 (MIA; read-out: 22): 2.4 ± 0.14 µM
GI50 (SJ-G2; read-out: 22): 1.8 ± 0.048 µM
GI50 (SMA; read-out: 22): 2.9 µM
GI50 (U87; read-out: 22): 2 ± 0.1 µM

CCNC(=O)Nc1ccc(OC/C=C\COc2ccc(NC(=O)NCC)cc2)cc1 [10e, (Z)-1,1′-((But-2-ene-1,4-diylbis(oxy))bis(4,1-phenylene))bis(3-ethylurea)]
GI50 (A2780; read-out: 10e): > 50 µM
GI50 (A431; read-out: 10e): > 50 µM
GI50 (BE2-C; read-out: 10e): > 50 µM
GI50 (Du145; read-out: 10e): > 50 µM
GI50 (H460; read-out: 10e): > 50 µM
GI50 (HT29; read-out: 10e): > 50 µM
GI50 (MCF-7; read-out: 10e): > 50 µM
GI50 (MCF10A; read-out: 10e): > 50 µM
GI50 (MIA; read-out: 10e): > 50 µM
GI50 (SJ-G2; read-out: 10e): > 50 µM
GI50 (SMA; read-out: 10e): > 50 µM
GI50 (U87; read-out: 10e): > 50 µM

CCNC(=O)Nc1ccc(OCCCOc2ccc(NC(=O)NCC)cc2)cc1 [10a, N,N′-[1,3-Propanediylbis(oxy-4,1-phenylene)]bis(N-ethyl)urea]
GI50 (A2780; read-out: 10a): > 50 µM
GI50 (A431; read-out: 10a): > 50 µM
GI50 (BE2-C; read-out: 10a): > 50 µM
GI50 (Du145; read-out: 10a): > 50 µM
GI50 (H460; read-out: 10a): > 50 µM
GI50 (HT29; read-out: 10a): > 50 µM
GI50 (MCF-7; read-out: 10a): > 50 µM
GI50 (MCF10A; read-out: 10a): > 50 µM
GI50 (MIA; read-out: 10a): > 50 µM
GI50 (SJ-G2; read-out: 10a): > 50 µM
GI50 (SMA; read-out: 10a): > 50 µM
GI50 (U87; read-out: 10a): > 50 µM

CCNC(=O)Nc1ccc(OCCCCOc2ccc(NC(=O)NCC)cc2)cc1 [compound 1]
GI50 (A2780; read-out: 1): > 50 µM
GI50 (A431; read-out: 1): > 50 µM
GI50 (BE2-C; read-out: 1): > 50 µM
GI50 (Du145; read-out: 1): > 50 µM
GI50 (H460; read-out: 1): > 50 µM
GI50 (HT29; read-out: 1): > 50 µM
GI50 (MCF-7; read-out: 1): > 50 µM
GI50 (MCF10A; read-out: 1): > 50 µM
GI50 (MIA; read-out: 1): > 50 µM
GI50 (SJ-G2; read-out: 1): > 50 µM
GI50 (SMA; read-out: 1): > 50 µM
GI50 (U87; read-out: 1): > 50 µM

CCNC(=O)Nc1ccc(OCCCCCOc2ccc(NC(=O)NCC)cc2)cc1 [10b, N,N′-[1,5-Pentanediylbis(oxy-4,1-phenylene)]bis(N-ethyl)urea]
GI50 (A2780; read-out: 10b): > 50 µM
GI50 (A431; read-out: 10b): > 50 µM
GI50 (BE2-C; read-out: 10b): > 50 µM
GI50 (Du145; read-out: 10b): > 50 µM
GI50 (H460; read-out: 10b): > 50 µM
GI50 (HT29; read-out: 10b): > 50 µM
GI50 (MCF-7; read-out: 10b): > 50 µM
GI50 (MCF10A; read-out: 10b): > 50 µM
GI50 (MIA; read-out: 10b): > 50 µM
GI50 (SJ-G2; read-out: 10b): > 50 µM
GI50 (SMA; read-out: 10b): > 50 µM
GI50 (U87; read-out: 10b): > 50 µM

Nc1ccc(OC/C=C\COc2ccc(N)cc2)cc1 [8e, (Z)-4,4′-(But-2-ene-1,4-diylbis(oxy))dianiline hydrochloride]
GI50 (A2780; read-out: 8e): > 50 µM
GI50 (A431; read-out: 8e): > 50 µM
GI50 (BE2-C; read-out: 8e): > 50 µM
GI50 (Du145; read-out: 8e): > 50 µM
GI50 (H460; read-out: 8e): > 50 µM
GI50 (HT29; read-out: 8e): > 50 µM
GI50 (MCF-7; read-out: 8e): > 50 µM
GI50 (MCF10A; read-out: 8e): > 50 µM
GI50 (MIA; read-out: 8e): > 50 µM
GI50 (SJ-G2; read-out: 8e): > 50 µM
GI50 (SMA; read-out: 8e): > 50 µM
GI50 (U87; read-out: 8e): > 50 µM
